“And” between values parts separate entries of the source, which are not always exact repeats. Equal values may be shown once. Numbers after ± are expanded uncertainties.
Details: 343.15 K, Liquid, Vibrating tube method

CCCCCCC(=O)OCC(COC(=O)CCCCCC)(COC(=O)CCCCCC)COC(=O)CCCCCC [pentaerythritol tetraheptanoate]
Details	mass density
28615 kPa	960.4 ± 1.2 kg/m3
28635 kPa	960.4 ± 1.2 kg/m3
28662 kPa	960.4 ± 1.2 kg/m3
28700 kPa	960.4 ± 1.2 kg/m3
28729 kPa	960.5 ± 1.2 kg/m3
28739 kPa	960.4 ± 1.2 kg/m3
28764 kPa	960.6 ± 1.2 kg/m3
28779 kPa	960.5 ± 1.2 kg/m3
28794 kPa	960.6 ± 1.2 kg/m3
28823 kPa	960.7 ± 1.2 kg/m3
28826 kPa	960.6 ± 1.2 kg/m3
28858 kPa	960.6 ± 1.2 kg/m3
28865 kPa	960.6 ± 1.2 kg/m3
28887 kPa	960.6 ± 1.2 kg/m3
28912 kPa	960.6 ± 1.2 kg/m3
28918 kPa	960.5 ± 1.2 kg/m3
28948 kPa	960.6 ± 1.2 kg/m3
28952 kPa	960.6 ± 1.2 kg/m3
28985 kPa	960.7 ± 1.2 kg/m3
28992 kPa	960.6 ± 1.2 kg/m3
29016 kPa	960.7 ± 1.2 kg/m3
29032 kPa	960.7 ± 1.2 kg/m3
29046 kPa	960.8 ± 1.2 kg/m3
29076 kPa	960.6 ± 1.2 kg/m3
29081 kPa	960.7 ± 1.2 kg/m3
29112 kPa	960.7 ± 1.2 kg/m3
29121 kPa	960.5 ± 1.2 kg/m3
29142 kPa	960.8 ± 1.2 kg/m3
29163 kPa	960.7 ± 1.2 kg/m3
29178 kPa	960.8 ± 1.2 kg/m3
29208 kPa	960.9 ± 1.2 kg/m3
29212 kPa	960.7 ± 1.2 kg/m3
29238 kPa	960.8 ± 1.2 kg/m3
29254 kPa	960.8 ± 1.2 kg/m3
29274 kPa	960.9 ± 1.2 kg/m3
29305 kPa	960.9 ± 1.2 kg/m3
29308 kPa	960.7 ± 1.2 kg/m3
29336 kPa	960.8 ± 1.2 kg/m3
29344 kPa	960.9 ± 1.2 kg/m3
29372 kPa	961 ± 1.2 kg/m3
29387 kPa	960.8 ± 1.2 kg/m3
29434 kPa	961 ± 1.2 kg/m3
29435 kPa	960.9 ± 1.2 kg/m3
29461 kPa	960.9 ± 1.2 kg/m3
29471 kPa	961.1 ± 1.2 kg/m3
29503 kPa	961 ± 1.2 kg/m3
29534 kPa	961 ± 1.2 kg/m3
29540 kPa	961 ± 1.2 kg/m3
29564 kPa	961 ± 1.2 kg/m3
29571 kPa	960.8 ± 1.2 kg/m3
29597 kPa	961.1 ± 1.2 kg/m3
29602 kPa	961.2 ± 1.2 kg/m3
29628 kPa	960.8 ± 1.2 kg/m3
29634 kPa	961.1 ± 1.2 kg/m3
29654 kPa	961 ± 1.2 kg/m3
29666 kPa	961 ± 1.2 kg/m3
29679 kPa	961 ± 1.2 kg/m3
29704 kPa	961.1 ± 1.2 kg/m3
29705 kPa	961.1 ± 1.2 kg/m3
29735 kPa	961.1 ± 1.2 kg/m3
29736 kPa	961.1 ± 1.2 kg/m3
29764 kPa	961.1 ± 1.2 kg/m3
29767 kPa	961.1 ± 1.2 kg/m3
29790 kPa	961.3 ± 1.2 kg/m3
29805 kPa	961.3 ± 1.2 kg/m3
29816 kPa	961.1 ± 1.2 kg/m3
29839 kPa	961.1 ± 1.2 kg/m3
29846 kPa	961.2 ± 1.2 kg/m3
29871 kPa	961.3 ± 1.2 kg/m3
29873 kPa	961.2 ± 1.2 kg/m3
29900 kPa	961.1 ± 1.2 kg/m3
29903 kPa	961.3 ± 1.2 kg/m3
29931 kPa	961.1 ± 1.2 kg/m3
29935 kPa	961.2 ± 1.2 kg/m3
29958 kPa	961.1 ± 1.2 kg/m3
29974 kPa	961.2 ± 1.2 kg/m3
29984 kPa	961.3 ± 1.2 kg/m3
30006 kPa	961.3 ± 1.2 kg/m3
30016 kPa	961.3 ± 1.2 kg/m3
30043 kPa	961.3 ± 1.2 kg/m3
30045 kPa	961.4 ± 1.2 kg/m3
30070 kPa	961.4 ± 1.2 kg/m3
30077 kPa	961.3 ± 1.2 kg/m3
30102 kPa	961.3 ± 1.2 kg/m3
30109 kPa	961.4 ± 1.2 kg/m3
30129 kPa	961.4 ± 1.2 kg/m3
30148 kPa	961.4 ± 1.2 kg/m3
30157 kPa	961.4 ± 1.2 kg/m3
30180 kPa	961.4 ± 1.2 kg/m3
30184 kPa	961.5 ± 1.2 kg/m3
30213 kPa	961.5 ± 1.2 kg/m3
30216 kPa	961.4 ± 1.2 kg/m3
30243 kPa	961.5 ± 1.2 kg/m3
30247 kPa	961.4 ± 1.2 kg/m3
30275 kPa	961.4 ± 1.2 kg/m3
30288 kPa	961.5 ± 1.2 kg/m3
30302 kPa	961.4 ± 1.2 kg/m3
30321 kPa	961.5 ± 1.2 kg/m3
30330 kPa	961.5 ± 1.2 kg/m3
30354 kPa	961.6 ± 1.2 kg/m3
30363 kPa	961.5 ± 1.2 kg/m3
30388 kPa	961.6 ± 1.2 kg/m3
30391 kPa	961.6 ± 1.2 kg/m3
30419 kPa	961.6 ± 1.2 kg/m3
30428 kPa	961.5 ± 1.2 kg/m3
30446 kPa	961.5 ± 1.2 kg/m3
30461 kPa	961.6 ± 1.2 kg/m3
30481 kPa	961.6 ± 1.2 kg/m3
30495 kPa	961.6 ± 1.2 kg/m3
30510 kPa	961.7 ± 1.2 kg/m3
30528 kPa	961.6 ± 1.2 kg/m3
30538 kPa	961.6 ± 1.2 kg/m3
30568 kPa	961.6 ± 1.2 kg/m3
30571 kPa	961.6 ± 1.2 kg/m3
30599 kPa	961.6 ± 1.2 kg/m3
30602 kPa	961.8 ± 1.2 kg/m3
30627 kPa	961.7 ± 1.2 kg/m3
30642 kPa	961.7 ± 1.2 kg/m3
30660 kPa	961.6 ± 1.2 kg/m3
30675 kPa	961.7 ± 1.2 kg/m3
30688 kPa	961.8 ± 1.2 kg/m3
30710 kPa	961.8 ± 1.2 kg/m3
30716 kPa	961.7 ± 1.2 kg/m3
30744 kPa	961.7 ± 1.2 kg/m3
30778 kPa	961.7 ± 1.2 kg/m3
30785 kPa	961.7 ± 1.2 kg/m3
30806 kPa	961.8 ± 1.2 kg/m3
30819 kPa	961.8 ± 1.2 kg/m3
30835 kPa	961.8 ± 1.2 kg/m3
30860 kPa	961.8 ± 1.2 kg/m3
30870 kPa	961.7 ± 1.2 kg/m3
30894 kPa	961.8 ± 1.2 kg/m3
30900 kPa	961.7 ± 1.2 kg/m3
30928 kPa	961.8 ± 1.2 kg/m3 and 962 ± 1.2 kg/m3
30956 kPa	961.9 ± 1.2 kg/m3
30970 kPa	962 ± 1.2 kg/m3
30990 kPa	961.7 ± 1.2 kg/m3
31004 kPa	961.9 ± 1.2 kg/m3
31019 kPa	961.9 ± 1.2 kg/m3
31040 kPa	962.1 ± 1.2 kg/m3
31048 kPa	961.8 ± 1.2 kg/m3
31081 kPa	962 ± 1.2 kg/m3
31082 kPa	961.8 ± 1.2 kg/m3
31111 kPa	962 ± 1.2 kg/m3
31116 kPa	962 ± 1.2 kg/m3
31145 kPa	962.1 ± 1.2 kg/m3
31151 kPa	962 ± 1.2 kg/m3
31174 kPa	962.1 ± 1.2 kg/m3
31193 kPa	962.1 ± 1.2 kg/m3
31203 kPa	961.9 ± 1.2 kg/m3
31229 kPa	962.1 ± 1.2 kg/m3
31238 kPa	962 ± 1.2 kg/m3
31264 kPa	962.1 ± 1.2 kg/m3
31268 kPa	962 ± 1.2 kg/m3
31298 kPa	962.1 ± 1.2 kg/m3
31306 kPa	962 ± 1.2 kg/m3
31327 kPa	962 ± 1.2 kg/m3
31342 kPa	962.2 ± 1.2 kg/m3
31362 kPa	962.1 ± 1.2 kg/m3
31377 kPa	962 ± 1.2 kg/m3
31392 kPa	962.1 ± 1.2 kg/m3
31420 kPa	962.3 ± 1.2 kg/m3
31427 kPa	962.1 ± 1.2 kg/m3
31456 kPa	962 ± 1.2 kg/m3
31457 kPa	962.2 ± 1.2 kg/m3
31486 kPa	962.2 ± 1.2 kg/m3
31492 kPa	962.3 ± 1.2 kg/m3
31516 kPa	962.2 ± 1.2 kg/m3
31528 kPa	962.2 ± 1.2 kg/m3
31552 kPa	962.2 ± 1.2 kg/m3
31571 kPa	962.3 ± 1.2 kg/m3
31582 kPa	962.3 ± 1.2 kg/m3
31608 kPa	962.4 ± 1.2 kg/m3
31611 kPa	962.3 ± 1.2 kg/m3
31644 kPa	962.3 ± 1.2 kg/m3
31647 kPa	962.2 ± 1.2 kg/m3
31678 kPa	962.4 ± 1.2 kg/m3
31688 kPa	962.3 ± 1.2 kg/m3
31715 kPa	962.3 ± 1.2 kg/m3
31725 kPa	962.5 ± 1.2 kg/m3
31745 kPa	962.3 ± 1.2 kg/m3
31761 kPa	962.4 ± 1.2 kg/m3
31775 kPa	962.4 ± 1.2 kg/m3
31805 kPa	962.4 ± 1.2 kg/m3
31807 kPa	962.4 ± 1.2 kg/m3
31841 kPa	962.4 ± 1.2 kg/m3
31844 kPa	962.4 ± 1.2 kg/m3
31871 kPa	962.5 ± 1.2 kg/m3
31874 kPa	962.4 ± 1.2 kg/m3
31905 kPa	962.5 ± 1.2 kg/m3
31914 kPa	962.5 ± 1.2 kg/m3
31942 kPa	962.3 ± 1.2 kg/m3
31958 kPa	962.4 ± 1.2 kg/m3
31972 kPa	962.6 ± 1.2 kg/m3
32003 kPa	962.4 ± 1.2 kg/m3
32009 kPa	962.5 ± 1.2 kg/m3
32040 kPa	962.6 ± 1.2 kg/m3
32041 kPa	962.6 ± 1.2 kg/m3
32071 kPa	962.6 ± 1.2 kg/m3
32078 kPa	962.5 ± 1.2 kg/m3
32104 kPa	962.5 ± 1.2 kg/m3
32115 kPa	962.6 ± 1.2 kg/m3
32136 kPa	962.5 ± 1.2 kg/m3
32160 kPa	962.6 ± 1.2 kg/m3
32173 kPa	962.5 ± 1.2 kg/m3
32199 kPa	962.6 ± 1.2 kg/m3
32205 kPa	962.6 ± 1.2 kg/m3
32236 kPa	962.7 ± 1.2 kg/m3
32237 kPa	962.7 ± 1.2 kg/m3
32274 kPa	962.7 ± 1.2 kg/m3
32282 kPa	962.7 ± 1.2 kg/m3
32305 kPa	962.7 ± 1.2 kg/m3
32320 kPa	962.7 ± 1.2 kg/m3
32337 kPa	962.6 ± 1.2 kg/m3
32358 kPa	962.7 ± 1.2 kg/m3
32368 kPa	962.7 ± 1.2 kg/m3
32403 kPa	962.8 ± 1.2 kg/m3
32406 kPa	962.7 ± 1.2 kg/m3
32438 kPa	962.8 ± 1.2 kg/m3
32441 kPa	962.8 ± 1.2 kg/m3
32471 kPa	962.8 ± 1.2 kg/m3
32480 kPa	962.9 ± 1.2 kg/m3
32509 kPa	962.8 ± 1.2 kg/m3
